Results published in US10766869B2, “Triazoles for the treatment of demyelinating dieases” (Vertex Pharmaceuticals Incorporated, priority 2015, dated 2020).

Tested on: primary rat mixed cortical cells
Assay: In vitro myelination assay (MBP positive myelin strands, fold myelin pixels above background)
Format: cell-based
Conditions: Rattus norvegicus, relative to baseline of no added compound; for fold induction at 1 µM: 1.0 μM compound, read-out: Fold myelin pixels above background, 1.0 μM; for fold induction at 10 µM: 10.0 μM compound, read-out: Fold myelin pixels above background, 10.0 μM
Procedure, shortened: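 P1 rat mixed cortical cultures (neurons, OPCs, oligodendrocytes, astrocytes, microglia) grown 14 days at 37 °C with compound, half-medium refreshed with compound on days 6 and 10. Fixed cells stained for MBP; MBP-positive myelin strand pixels per well quantified by automated imaging, reported as fold over no-compound baseline at 1.0 and 10.0 μM.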

| SMILES | fold induction at 1 µM | fold induction at 10 µM |
| --- | --- | --- |
| Fc1cc(F)cc(-n2cnc(Nc3cc(N4CCN(C5COC5)CC4)cc(C(F)(F)F)c3)n2)c1 [Compound 130, 1-(3,5-difluorophenyl)-N-[3-[4-(oxetan-3-yl)piperazin-1-yl]-5-(trifluoromethyl)phenyl]-1,2,4-triazol-3-amine] | 1000 to 10000 | 100 to 1000 |
| Cc1cc(Nc2ncn(-c3cc(F)cc(F)c3)n2)cc(C2COC2)c1 [Compound 131, 1-(3,5-difluorophenyl)-N-[3-methyl-5-(oxetan-3-yl)phenyl]-1,2,4-triazol-3-amine] | 10 to 100 | 1000 to 10000 |
| CCc1cc(Nc2ncn(-c3ccnc(SC)n3)n2)cc(N2CCN(C3COC3)CC2)c1 [Compound 132, N-[3-ethyl-5-[4-(oxetan-3-yl)piperazin-1-yl]phenyl]-1-(2-methylsulfanylpyrimidin-4-yl)-1,2,4-triazol-3-amine] | 1 to 10 | 1 to 10 |
| Cc1cc(Nc2ncn(-c3ccccc3)n2)cc(N2CCN(C)C(C)C2)c1 (stereo not drawn) [Compound 133, N-[3-(3,4-dimethylpiperazin-1-yl)-5-methyl-phenyl]-1-phenyl-1,2,4-triazol-3-amine] | 1000 to 10000 | ≤ 1 |
| Clc1cncc(-n2cnc(Nc3cc(C4CC4)cc(N4CCN(C5COC5)CC4)c3)n2)c1 [Compound 134, 1-(5-chloro-3-pyridyl)-N-[3-cyclopropyl-5-[4-(oxetan-3-yl)piperazin-1-yl]phenyl]-1,2,4-triazol-3-amine] | 100 to 1000 | 10 to 100 |
| Clc1cc(Nc2ncn(-c3ccccc3)n2)cc(N2CCOCC2)n1 [Compound 135, 2-chloro-6-morpholino-N-(1-phenyl-1,2,4-triazol-3-yl)pyridin-4-amine] | 1000 to 10000 | ≤ 1 |
| Cc1cc(Nc2ncn(-c3cnccn3)n2)cc(N2CCN(C3(C)COC3)CC2)c1 [Compound 136, N-[3-methyl-5-[4-(3-methyloxetan-3-yl)piperazin-1-yl]phenyl]-1-pyrazin-2-yl-1,2,4-triazol-3-amine] | 1 to 10 | 10 to 100 |
| Cc1cc(Nc2ncn(-c3cc(F)cc(F)c3)n2)cc(N2CCN(C3CCOC3)CC2)c1 (stereo not drawn) [Compound 137, 1-(3,5-difluorophenyl)-N-[3-methyl-5-(4-tetrahydrofuran-3-ylpiperazin-1-yl)phenyl]-1,2,4-triazol-3-amine] | 1000 to 10000 | 100 to 1000 |
| Cc1cc(Nc2ncn(-c3ccccn3)n2)cc(N2CCN(C)CC2)c1 [Compound 138, N-[3-methyl-5-(4-methylpiperazin-1-yl)phenyl]-1-(2-pyridyl)-1,2,4-triazol-3-amine] | 10 to 100 | 100 to 1000 |
| Cc1cc(Nc2ncn(-c3cc(F)cc(F)c3)n2)cc(N2CC[N+]([O-])(C3COC3)CC2)c1 [Compound 139, 1-(3,5-difluorophenyl)-N-[3-methyl-5-[4-(oxetan-3-yl)-4-oxido-piperazin-4-ium-1-yl]phenyl]-1,2,4-triazol-3-amine] | 100 to 1000 | 1 to 10 |
| Cc1cc(Nc2ncn(-c3ccc(C#N)c(F)c3)n2)cc(N2CCN(C3COC3)CC2)c1 [Compound 140, 2-fluoro-4-[3-[3-methyl-5-[4-(oxetan-3-yl)piperazin-1-yl]anilino]-1,2,4-triazol-1-yl]benzonitrile] | 1 to 10 | 1 to 10 |
| Cc1cc(Nc2ncn(-c3cccc(Cl)c3)n2)cc(N2CCN(C)CC2)c1 [Compound 141, 1-(3-chlorophenyl)-N-[3-methyl-5-(4-methylpiperazin-1-yl)phenyl]-1,2,4-triazol-3-amine] | 100 to 1000 | ≤ 1 |
| Cc1cc(Nc2ncn(-c3ccccc3)n2)cc(N2CCC(C#N)CC2)c1 [Compound 142, 1-[3-methyl-5-[(1-phenyl-1,2,4-triazol-3-yl)amino]phenyl]piperidine-4-carbonitrile] | 1000 to 10000 | 100 to 1000 |
| COC(=O)N1CCCC(c2cc(C)cc(Nc3ncn(-c4ccccc4)n3)c2)C1 (stereo not drawn) [Compound 143, methyl 3-[3-methyl-5-[(1-phenyl-1,2,4-triazol-3-yl)amino]phenyl]piperidine-1-carboxylate] | 1000 to 10000 | 1000 to 10000 |
| CC(=O)N1CCN(c2cc(Nc3ncn(-c4ccccc4)n3)cc(C(F)F)c2)CC1 [Compound 144, 1-[4-[3-(difluoromethyl)-5-[(1-phenyl-1,2,4-triazol-3-yl)amino]phenyl]piperazin-1-yl]ethanone] | 100 to 1000 | ≤ 1 |
| COc1cccc(-n2cnc(Nc3cc(Cl)nc(N4CCOCC4)c3)n2)c1 [Compound 145, 2-chloro-N-[1-(3-methoxyphenyl)-1,2,4-triazol-3-yl]-6-morpholino-pyridin-4-amine] | 10 to 100 | 10 to 100 |
| Cc1cc(Nc2ncn(-c3ccccc3)n2)cc(N2CCCC(C#N)C2)c1 (stereo not drawn) [Compound 146, 1-[3-methyl-5-[(1-phenyl-1,2,4-triazol-3-yl)amino]phenyl]piperidine-3-carbonitrile] | 1000 to 10000 | 100 to 1000 |

| SMILES | fold induction at 1 µM | fold induction at 10 µM |
| --- | --- | --- |
| Cc1cc(Nc2ncn(-c3cccc(F)c3)n2)cc(C2COC2)c1 [Compound 147, 1-(3-fluorophenyl)-N-[3-methyl-5-(oxetan-3-yl)phenyl]-1,2,4-triazol-3-amine] | 1000 to 10000 | 10 to 100 |
| COCCC1CCN(c2cc(C)cc(Nc3ncn(-c4ccccc4)n3)c2)CC1 [Compound 148, N-[3-[4-(2-methoxyethyl)-1-piperidyl]-5-methyl-phenyl]-1-phenyl-1,2,4-triazol-3-amine] | 100 to 1000 | 100 to 1000 |
| Cc1cc(Nc2ncn(-c3ccccc3)n2)cc(N2CCN(C3CC3)CC2)c1 [Compound 149, N-[3-(4-cyclopropylpiperazin-1-yl)-5-methyl-phenyl]-1-phenyl-1,2,4-triazol-3-amine] | 1000 to 10000 | 10 to 100 |
| Fc1ccc(-n2cnc(Nc3cc(C4CCOCC4)nc(C4CC4)c3)n2)cc1F [Compound 150, 2-cyclopropyl-N-(1-(3,4-difluorophenyl)-1H-1,2,4-triazol-3-yl)-6-(tetrahydro-2H-pyran-4-yl)pyridin-4-amine] | 1000 to 10000 | ≤ 1 |
| Cc1cc(Nc2ncn(-c3cc(F)cc(F)c3)n2)cc(C2CCN(C)CC2)c1 [Compound 151, 1-(3,5-difluorophenyl)-N-[3-methyl-5-(1-methyl-4-piperidyl)phenyl]-1,2,4-triazol-3-amine] | 10 to 100 | ≤ 1 |
| Cc1cc(Nc2ncn(-c3ccccc3)n2)cc(N2CC(CC(C)C)N3CCC[C@@H]3C2)c1 (stereo partly drawn) [Compound 152, N-[3-[(8aR)-4-isobutyl-3,4,6,7,8,8a-hexahydro-1H-pyrrolo[1,2-a]pyrazin-2-yl]-5-methyl-phenyl]-1-phenyl-1,2,4-triazol-3-amine] | ≤ 1 | ≤ 1 |
| Fc1cc(-n2cnc(Nc3cc(C(F)F)cc(N4CCN(C5CC5)CC4)c3)n2)ccn1 [Compound 153, N-[3-(4-cyclopropylpiperazin-1-yl)-5-(difluoromethyl)phenyl]-1-(2-fluoro-4-pyridyl)-1,2,4-triazol-3-amine] | 100 to 1000 | 10 to 100 |
| Cc1cc(Nc2ncn(-c3cccc(F)n3)n2)cc(N2CCN(C3COC3)CC2)c1 [Compound 154, 1-(6-fluoro-2-pyridyl)-N-[3-methyl-5-[4-(oxetan-3-yl)piperazin-1-yl]phenyl]-1,2,4-triazol-3-amine] | 100 to 1000 | 100 to 1000 |
| Cc1cc(Nc2ncn(-c3ccnc(O)c3)n2)cc(N2CCOCC2)c1 [Compound 155, 4-[3-(3-methyl-5-morpholino-anilino)-1,2,4-triazol-1-yl]pyridin-2-ol] | 100 to 1000 | 100 to 1000 |
| Cc1cc(Nc2ncn(-c3ccccc3)n2)cc(N2CCN(C)CC2)n1 [Compound 156, 2-methyl-6-(4-methylpiperazin-1-yl)-N-(1-phenyl-1,2,4-triazol-3-yl)pyridin-4-amine] | 1000 to 10000 | ≤ 1 |
| Cc1cc(Nc2ncn(-c3ccccc3)n2)cc(N2CCN3CCC[C@@H]3C2)c1 [Compound 157, N-[3-[(8aR)-3,4,6,7,8,8a-hexahydro-1H-pyrrolo[1,2-a]pyrazin-2-yl]-5-methyl-phenyl]-1-phenyl-1,2,4-triazol-3-amine] | 1000 to 10000 | 1000 to 10000 |
| Fc1cc(Nc2ncn(-c3cccc(F)c3)n2)cc(N2CCOCC2)c1 [Compound 158, N-(3-fluoro-5-morpholino-phenyl)-1-(3-fluorophenyl)-1,2,4-triazol-3-amine] | 10 to 100 | 100 to 1000 |
| Cc1cc(Nc2ncn(-c3ccccc3)n2)cc(N2CCNCC2)c1 [Compound 159, N-(3-methyl-5-piperazin-1-yl-phenyl)-1-phenyl-1,2,4-triazol-3-amine] | 1000 to 10000 | ≤ 1 |
| Cc1cc(Nc2ncn(-c3ccccc3)n2)cc(C2=CCN(C3COC3)C2)c1 [Compound 160, N-[3-methyl-5-[1-(oxetan-3-yl)-2,5-dihydropyrrol-3-yl]phenyl]-1-phenyl-1,2,4-triazol-3-amine] | 1000 to 10000 | ≤ 1 |
| Cc1cc(Nc2ncn(-c3cc(F)cc(F)c3)n2)cc(N2CCC(N3CCCC3=O)CC2)c1 [Compound 161, 1-[1-[3-[[1-(3,5-difluorophenyl)-1,2,4-triazol-3-yl]amino]-5-methyl-phenyl]-4-piperidyl]pyrrolidin-2-one] | 10 to 100 | 10 to 100 |
| COCC1CCN(c2cc(C)cc(Nc3ncn(-c4cc(F)cc(F)c4)n3)c2)CC1 [Compound 162, 1-(3,5-difluorophenyl)-N-[3-[4-(methoxymethyl)-1-piperidyl]-5-methyl-phenyl]-1,2,4-triazol-3-amine] | ≤ 1 | ≤ 1 |
